Data on 85 compounds can be found in patent US12156523B2 (priority 2017, dated 2024).

The subject of this experiment is Pyricularia oryzae. As to the kind of experiment: whole plant or invertebrate. Format: in vivo. The settings on record: soil, read-out: Control value (number of lesions at the second leaf).
`Cc1ccc(NC(=O)c2cc(F)nc(F)c2F)cc1F` [Example 1-39]: the pest or weed control at 10 µg/mL was no less than 80%. As to `O=C(NC(CO)c1ccccc1)c1cc(F)nc(F)c1F` (stereo not shown) [Example 1-81], the pest or weed control at 10 µg/mL was no less than 80%. Under `O=C(NC1=NCCS1)c1cc(F)nc(F)c1F` [Example 1-12] stands no less than 80%; under `CN(C(=O)c1cc(F)nc(F)c1F)c1ccccc1` [Example 1-2], no less than 80%. Regarding `CCCCCCCCNC(=O)c1cc(F)nc(F)c1F` [Example 1-96], the pest or weed control at 10 µg/mL was no less than 80%. Under `O=C(Oc1ccc([N+](=O)[O-])cc1)c1cc(F)nc(F)c1F` [Example 1-112] stands no less than 80%; under `Cc1cccc(OC(=O)c2cc(F)nc(F)c2)c1` [Example 1-206], no less than 80%; under `Cc1ccc(NC(=O)c2cc(F)nc(F)c2F)cc1[N+](=O)[O-]` [Example 1-64], no less than 80%. The value for `Cc1ccc(COC(=O)c2cc(F)nc(F)c2F)cc1` [Example 1-110] was no less than 80%.

In the case of `CCCCCCCCOC(=O)c1cc(F)nc(F)c1F` [Example 1-127], the pest or weed control at 10 µg/mL was no less than 80%.

As for `COc1ccc(COC(=O)c2cc(F)nc(F)c2F)cc1` [Example 1-109], the pest or weed control at 10 µg/mL is no less than 80%. Consider `O=C(Nc1c(F)c(F)c(C(F)(F)F)c(F)c1F)c1cc(F)nc(F)c1F` [Example 1-4], for which the pest or weed control at 10 µg/mL is no less than 80%. `Cc1ccccc1NC(=O)c1cc(F)nc(F)c1F` [Example 1-14]: the pest or weed control at 10 µg/mL was no less than 80%. Take `O=C(Nc1nc2ccccc2s1)c1cc(F)nc(F)c1` [Example 1-194]: the pest or weed control at 10 µg/mL is no less than 80%. Under `O=C1c2ccccc2S(=O)(=O)N1C(=O)c1cc(F)nc(F)c1F` [Example 2-5] stands no less than 80%; under `COC(=O)c1cc(F)nc(F)c1` [Example 1-189], no less than 80%; under `Cc1cc(C)cc(NC(=O)c2cc(F)nc(F)c2F)c1` [Example 1-26], no less than 80%. For `C#CCOC(=O)c1cc(F)nc(F)c1` [Example 1-182], the pest or weed control at 10 µg/mL is no less than 80%. For `O=C(Nc1cccc(OC(F)(F)F)c1)c1cc(F)nc(F)c1F` [Example 1-52], the pest or weed control at 10 µg/mL is no less than 80%. On to `N#Cc1ccc(OC(=O)c2cc(F)nc(F)c2F)cc1` [Example 1-108], for which the pest or weed control at 10 µg/mL was no less than 80%.

Take `O=C(Nc1cc(Cl)cc(Cl)c1)c1cc(F)nc(F)c1F` [Example 1-24]: the pest or weed control at 10 µg/mL is no less than 80%. The value for `O=C(Nc1ccc2c(c1)OCCO2)c1cc(F)nc(F)c1F` [Example 1-9] was no less than 80%; that for `O=C(Nc1ccc(F)c(F)c1)c1cc(F)nc(F)c1F` [Example 1-21] was no less than 80%. The value for `Fc1cc(C2=NCCCO2)c(F)c(F)n1` [Example 4-3] was no less than 80%; that for `C=CCNC(=O)c1cc(F)nc(F)c1` [Example 1-159] was no less than 80%.

Take `CCOc1ccc(NC(=O)c2cc(F)nc(F)c2F)cc1` [Example 1-57]: the pest or weed control at 10 µg/mL is no less than 80%. Under `O=C(Nc1ccc(Cl)cc1)c1cc(F)nc(F)c1` [Example 1-153] stands no less than 80%. Under `CC(C)Oc1cccc(N(C)C(=O)c2cc(F)nc(F)c2F)c1` [Example 1-1] stands no less than 80%. Consider `Cc1cc(NC(=O)c2cc(F)nc(F)c2F)ccc1F` [Example 1-58], for which the pest or weed control at 10 µg/mL is no less than 80%. Consider `C#CCOC(=O)c1cc(F)nc(F)c1F` [Example 1-119], for which the pest or weed control at 10 µg/mL was no less than 80%.

For the compound `CCOC(=O)c1cccc(NC(=O)c2cc(F)nc(F)c2F)c1` [Example 1-37], the pest or weed control at 10 µg/mL is no less than 80%. Regarding `CCOC(=O)c1cc(F)nc(F)c1F` [Example 1-117], the pest or weed control at 10 µg/mL was no less than 80%.

For the compound `CC(OC(=O)c1cc(F)nc(F)c1F)C(F)(F)F` (stereo not shown) [Example 1-115], the pest or weed control at 10 µg/mL was no less than 80%. Regarding `Cc1ccc(OC(=O)c2cc(F)nc(F)c2F)cc1` [Example 1-111], the pest or weed control at 10 µg/mL is no less than 80%.

Take `O=C(Oc1ccccc1)c1cc(F)nc(F)c1` [Example 1-218]: the pest or weed control at 10 µg/mL was no less than 80%. Under `O=C(OCC(F)(F)F)c1cc(F)nc(F)c1F` [Example 1-120] stands no less than 80%; under `COc1ccc(NC(=O)c2cc(F)nc(F)c2F)cc1OC` [Example 1-22], no less than 80%.

In the case of `O=C(Nc1cccc(Oc2ccccc2)c1)c1cc(F)nc(F)c1F` [Example 1-47], the pest or weed control at 10 µg/mL was no less than 80%.

As for `CC(NC(=O)c1cc(F)nc(F)c1F)c1ccccc1` (stereo not shown) [Example 1-85], the pest or weed control at 10 µg/mL was no less than 80%. Under `Cc1cccc(C)c1NC(=O)c1cc(F)nc(F)c1F` [Example 1-7] stands no less than 80%; under `O=C(Nc1nc[nH]n1)c1cc(F)nc(F)c1F` [Example 1-51], no less than 80%; under `O=C(Nc1ccc(F)cc1)c1cc(F)nc(F)c1` [Example 1-201], no less than 80%. For the compound `O=C(Nc1ccccn1)c1cc(F)nc(F)c1F` [Example 1-16], the pest or weed control at 10 µg/mL is no less than 80%. The value for `O=C(NCCO)c1cc(F)nc(F)c1F` [Example 1-78] was no less than 80%; that for `O=C(OCc1ccccc1)c1cc(F)nc(F)c1F` [Example 1-114] was no less than 80%. Regarding `O=C(Oc1ccccc1F)c1cc(F)nc(F)c1` [Example 1-211], the pest or weed control at 10 µg/mL is no less than 80%. Take `COc1cc(NC(=O)c2cc(F)nc(F)c2F)ccc1C` [Example 1-63]: the pest or weed control at 10 µg/mL was no less than 80%. Take `O=C(OCc1snc(Cl)c1Cl)c1cc(F)nc(F)c1F` [Example 1-104]: the pest or weed control at 10 µg/mL is no less than 80%. The value for `C=CCOC(=O)c1cc(F)nc(F)c1` [Example 1-188] was no less than 80%; that for `O=C(Oc1cccc(F)c1)c1cc(F)nc(F)c1` [Example 1-207] was no less than 80%. Under `CCOC(=O)COC(=O)c1cc(F)nc(F)c1F` [Example 1-125] stands no less than 80%. Under `CC(C)OC(=O)c1cc(F)nc(F)c1F` [Example 1-118] stands no less than 80%. Take `O=C(Oc1ccccc1Cl)c1cc(F)nc(F)c1` [Example 1-209]: the pest or weed control at 10 µg/mL was no less than 80%. Under `COc1cc(NC(=O)c2cc(F)nc(F)c2F)cc(OC)c1OC` [Example 1-20] stands no less than 80%. On to `CC(=O)OCc1cc(F)nc(F)c1F` [Example 3-1], for which the pest or weed control at 10 µg/mL is no less than 80%. As to `COc1ccc(NC(=O)c2cc(F)nc(F)c2)cc1` [Example 1-200], the pest or weed control at 10 µg/mL is no less than 80%. As for `Cn1cccc1C(=O)c1cc(F)nc(F)c1F` [Example 2-2], the pest or weed control at 10 µg/mL is no less than 80%. For `Cc1cc(NC(=O)c2cc(F)nc(F)c2F)no1` [Example 1-73], the pest or weed control at 10 µg/mL was no less than 80%. Under `CC(NC(=O)c1cc(F)nc(F)c1F)c1ccc(Cl)cc1` (stereo not shown) [Example 1-84] stands no less than 80%. For the compound `O=C(Nc1ccc(Cl)c(Cl)c1)c1cc(F)nc(F)c1` [Example 1-155], the pest or weed control at 10 µg/mL was no less than 80%. For `O=C(Nc1cnccn1)c1cc(F)nc(F)c1F` [Example 1-15], the pest or weed control at 10 µg/mL is no less than 80%.

As for `CCOC(=O)c1ccc(NC(=O)c2cc(F)nc(F)c2F)cc1` [Example 1-56], the pest or weed control at 10 µg/mL was no less than 80%.

In the case of `O=C(Nc1ncccn1)c1cc(F)nc(F)c1F` [Example 1-17], the pest or weed control at 10 µg/mL is no less than 80%. With `O=C(NCCBr)c1cc(F)nc(F)c1F` [Example 1-87], the pest or weed control at 10 µg/mL is no less than 80%. As for `O=C(Nc1ccc(Cl)cc1)c1cc(F)nc(F)c1F` [Example 1-54], the pest or weed control at 10 µg/mL is no less than 80%. The value for `CC(C)(C)Oc1ccc(NC(=O)c2cc(F)nc(F)c2F)cc1` [Example 1-70] was no less than 80%; that for `Cc1cnc(NC(=O)c2cc(F)nc(F)c2F)s1` [Example 1-74] was no less than 80%; that for `N#Cc1ccc(NC(=O)c2cc(F)nc(F)c2F)cc1` [Example 1-55] was no less than 80%. The value for `CC(C)(C)c1ccc(NC(=O)c2cc(F)nc(F)c2F)cc1` [Example 1-71] was no less than 80%; that for `Cc1ccc(NC(=O)c2cc(F)nc(F)c2F)cc1C(F)(F)F` [Example 1-65] was no less than 80%; that for `CCCOC(=O)c1cc(F)nc(F)c1F` [Example 1-123] was no less than 80%. For the compound `O=C(Nc1cccc(Cl)c1Cl)c1cc(F)nc(F)c1F` [Example 1-5], the pest or weed control at 10 µg/mL was no less than 80%. Under `O=C(NCc1ccccc1)c1cc(F)nc(F)c1` [Example 1-140] stands no less than 80%; under `CNC(=O)c1cc(F)nc(F)c1F` [Example 1-92], no less than 80%. The value for `O=C(OCC=C(Cl)Cl)c1cc(F)nc(F)c1F` [Example 1-122] was no less than 80%; that for `O=C(OCc1ccccc1Cl)c1cc(F)nc(F)c1F` [Example 1-100] was no less than 80%; that for `CC(NC(=O)c1cc(F)nc(F)c1)c1ccc(Cl)cc1` (stereo not shown) [Example 1-141] was no less than 80%.

Consider `Cc1ccc(NC(=O)c2cc(F)nc(F)c2F)cc1Br` [Example 1-28], for which the pest or weed control at 10 µg/mL was no less than 80%. Under `CCCCCCCCCCCCOC(=O)c1cc(F)nc(F)c1` [Example 1-214] stands no less than 80%.

Take `CC(=O)Oc1ccccc1COC(=O)c1cc(F)nc(F)c1` [Example 1-145]: the pest or weed control at 10 µg/mL was no less than 80%. Under `CCOC(=O)c1cc(F)nc(F)c1` [Example 1-185] stands no less than 80%; under `CC(C)(C)Oc1cccc(NC(=O)c2cc(F)nc(F)c2F)c1` [Example 1-50], no less than 80%. The value for `O=C(NCCS)c1cc(F)nc(F)c1F` [Example 1-79] was no less than 80%; that for `Cc1cccc(NC(=O)c2cc(F)nc(F)c2F)c1` [Example 1-46] was no less than 80%; that for `COc1ccc(NC(=O)c2cc(F)nc(F)c2F)cc1` [Example 1-61] was no less than 80%.
